According to patent US20250177448A1, “NEW USE OF PEG-PHOSPHOLIPID MOLECULES” (ICOAT MEDICAL AB, priority 2022, published 2025):

Assays:
[1] = tested on: porcine kidney transplant, ischemia reperfusion injury
Protocol: TAT was measured in both human and porcine plasma using an anti-human thrombin monoclonal antibody was used for capturing and an HRP-coupled anti-human antithrombin (AT) antibody was used for detection (Enzyme Research Laboratories, South Bend, IN, USA).
In addition, TNF, IL-1b, IL-6 and tissue factor (TF) were quantified in plasma by immunoassays using a GyroLab workstation (Gyros, Uppsala, Sweden), and the presence of these compounds, as well as IFNγ in biopsies (below) were verified by PCR.
Paraffin sections of porcine kidney tissue were cut (3-5 μm), deparaffinized in xylene and rehydrated with a graded series of ethanol and distilled water. For IHC staining a heat-induced antigen retrieval was performed by boiling the sections in sodium citric buffer (pH 6), the sections were blocked with 10% normal goat serum (Jackson Immunoresearch) before primary antibody incubation: anti-MAC (abcam ab66768); anti-C3b alpha chain (Bioss bs-4873R); anti-C4d (abcam ab64157), anti-C5aR (Acris AP06509PU-N), anti-HO1 (abcam ab52947), anti-CSE (abnova H00001491-M01), anti-Nitrotyrosine (Merck Millipore AB5411), anti-NOS2 (Santa Cruz sc-651), detection was performed by DAKO Real
Detection System alkaline phosphatase red (Dako). The sections were counterstained with Mayer's hematoxylin (Sigma #51275). Control staining was done with a nonspecific rabbit IgG (Dako #X0936). The slides were visualized using a Zeiss Axio Imager A1 microscope with a ×10 objective (100-fold magnification). Intensity of staining was quantified on multiple randomly selected 800,000 μm^2 sections using the AxioVision 4.8 software (Zeiss). Data are presented as mean densitometric sum red.

[2] = tested on: porcine kidney transplant, ischemia reperfusion injury; assay: Porcine allogeneic survival transplantation model (SM); type: in vivo, pig; conditions: for IFNγ level / IL-1α level / IL-1β level / IL-2 level / IL-4 level / IL-6 level / IL-10 level / IL-12 level / IL-18 level: vs untreated control kidneys
Protocol: (§1) During and after surgery, systemic blood was collected for up to 4 days and analyzed for creatinine, sodium, potassium and phosphate (Section for Clinical Chemistry, Uppsala University Hospital).
Multiplex protein analyses using multiplex Luminex xMAP Technology (Millipore Corporation, Billerica, MA, USA) were performed using a porcine specific kit for 12 cytokines/chemokines: Interferon-gamma (INFγ), Interleukins IL-1b, IL-2, IL-1a, IL-1RA, IL-4, IL-6, IL-10, IL-18, IL-8, IL-12, and TNF. Plasma was incubated with agent-specific-coloured magnetic beads, thereafter with detection antibodies and streptavidin-phycoerythrin (Millipore Corporation). Plates were measured using a MAGPIX instrument (Luminex Corporation, Austin, TX, USA). Raw data [median fluorescence intensity (MFI)] was translated into protein concentration (ng/ml) using a standard curve.
(§2) These studies were approved by the Ethics Committee for Animal Experimentation, Uppsala, Sweden, Dnr C123/14. For each of these studies (SM and CLSM) five donor pigs and 10 recipient pigs of both sexes were used. All pigs were certified SPF pigs (Yorkshire×Hampshire) and bred at Lövsta University herd, SLU, Sweden. At arrival to SLU the pigs were 8 weeks old.
(§3) For the SM study, the pigs were selected after typing for Swine Leucocyte Antigen (SLA) class 1 in the following manner: the donor pigs were obtained from two litters and not related to any of the recipients. The recipient pigs were siblings, matched in pairs according to SLA class 1 (see below). For the CLSM study, all recipient pigs were siblings and not related to the donors, but these the pigs were not SLA-typed.
SM study: the kidneys were retrieved en bloc using the same procedure as in the ANSM study. Also here, the kidneys were exposed to an initial warm ischemia of less than 5 minutes. […] Post preservation, the kidneys were randomized to receive either PEG-phospholipid (15 mL, 2 mg/mL) or HTK solution at +4° C. by injection through the renal artery after clamping of the renal vein. During a 40-60 min incubation, the renal artery and vein were maintained clamped. The SM study comprised 6 kidneys treated with PEG-phospholipid and 4 control kidneys.
The recipient pigs underwent allogeneic single kidney transplantation. Through a 15-20 cm abdominal midline incision, the iliac vessels in the right iliac fossa were identified and carefully mobilized. The distal segment of the vena cava as well as the iliac artery (from its emergence from the aorta) were mobilized, sealing the surrounding lymphoid tissue. The renal graft was thereafter placed in the right iliac fossa in the proximity of the iliac vessels. The renal vein and artery were trimmed, and subsequently anastomosed in an end-to-side fashion to the recipient's right iliac artery and distal vena cava using a polypropylene 7/0 running suture (PROLENE®, Ethicon, US). The ureters were implanted by extravesical ureteroneocystostomy to the top of the bladder by 6-0 polydioxanone suture (PDS®, Ethicon, US). Thereafter, bilateral nephrectomy of the native kidneys was performed. The midline incision was closed by running a 2/0 polyglactin (VICRYL®, Ethicon, US) fascia suture and skin clips. No anticoagulants were given to the recipient. After the inguinal transplantation was completed, urine was collected directly from the bladder by cystocentesis, showing that all of the transplanted kidneys had started to produce urine soon after reperfusion. By using a urine stick the sample was analyzed for proteinurea and hematuria. The mean duration of the surgery was 2.5 hours (1.75-3.25 hours).
During and after transplantation, EDTA blood was collected from the local renal vein at 0, 15, 30 and 60 min after reperfusion, and systemic blood samples were obtained at 1, 2, 3, and 4 days after surgery. […]

[3] = tested on: porcine kidney transplant, ischemia reperfusion injury; assay: Porcine clinical-like allogeneic survival transplantation model (CLSM); type: in vivo, pig; conditions: not shown
Text: as §1, §2, §3
CLSM study: In this study, the retrieval of the kidney resembled the standard operative procedure of human organ procurement. Each donor was randomized to either PEG-phospholipid or HTK treatment. […]
The recipient pigs underwent allogeneic single kidney transplantation. […] By using a urine stick the sample was analyzed for proteinurea and hematuria. […]

[4] = ANSM biopsies, electron microscopy, vs matched individual controls
[5] = ANSM, 1, 60 and 360 min, treated vs non-treated kidneys
[6] = ANSM, 6 h observation, treated vs untreated kidneys
[7] = ANSM, treated vs untreated kidneys
[8] = 60 min following transplantation
[9] = 4 days following transplantation
[10] = kidney vein, 5 min, in most cases
[11] = up to 4 days post-transplantation

**Q.** For “N-(methylpolyoxyethylene oxycarbonyl)-1,2-dipalmitoyl-sn-glycero-3-phosphoethanolamine [PEG-phospholipid]”, which “glomerular NETosis (renal NET deposition)” value [1, 4] is on record?
**A.** Its value is “marked decrease”.

**Q.** And the “tubular NETosis (renal NET deposition)” value [1, 4]?
**A.** Its value is “marked decrease”.

**Q.** And the “HO-1 staining in biopsies” value [1, 5]?
**A.** Its value is “No difference was found”.

**Q.** And the “INOS staining in biopsies” value [1, 5]?
**A.** Its value is “No difference was found”.

**Q.** What about the “nitrotyrosine staining in biopsies” value [1, 5] of the same substance?
**A.** Its value is “No difference was found”.

**Q.** What about the “C3a in renal vein blood” value [1, 6] of the same substance?
**A.** The value was “substantially lower”.

**Q.** And the “FXIla-C1INH in renal vein blood” value [1, 6]?
**A.** The value was “substantially lower”.

**Q.** What about the “TAT in renal vein blood” value [1, 6] of the same substance?
**A.** Its value is “substantially lower”.

**Q.** What about the “sC5b-9 in renal vein blood” value [1, 6] of the same substance?
**A.** The value was “substantially lower”.

**Q.** And the “IL-1β mRNA expression in kidney biopsies” value ([1]; ANSM, RT-PCR, vs controls)?
**A.** Its value is “lower”.

**Q.** What about the “IL-6 mRNA expression in kidney biopsies” value ([1]; ANSM, RT-PCR, vs controls) of the same substance?
**A.** Its value is “lower”.

**Q.** What about the “TF mRNA expression in kidney biopsies” value ([1]; ANSM, RT-PCR, vs controls) of the same substance?
**A.** The value was “lower”.

**Q.** What about the “TNF mRNA expression in kidney biopsies” value ([1]; ANSM, RT-PCR, vs controls) of the same substance?
**A.** The value was “lower”.

**Q.** What about the “deposition of NETs in all locations (glomerular, tubular, vascular)” value ([1]; ANSM, n=6) of the same substance?
**A.** Its value is “highly significant reduction”.

**Q.** What about the “binding of C3b in kidney biopsies” value [1, 7] of the same substance?
**A.** Its value is “significantly lower binding”.

**Q.** And the “binding of C4d in kidney biopsies” value [1, 7]?
**A.** The value was “tendency of a lower binding”.

**Q.** And the “IL-1β plasma concentration in the renal vein” value ([1]; ANSM, vs controls)?
**A.** The value was “lower”.

**Q.** What about the “IL-6 plasma concentration in the renal vein” value ([1]; ANSM, vs controls) of the same substance?
**A.** The value was “lower”.

**Q.** What about the “TF plasma concentration in the renal vein” value ([1]; ANSM, vs controls) of the same substance?
**A.** Its value is “lower”.

**Q.** What about the “TNF plasma concentration in the renal vein” value ([1]; ANSM, vs controls) of the same substance?
**A.** The value was “lower”.

**Q.** And the “time within which fluorescence migrated from the glomeruli to the tubular system” value ([1]; pig, in vivo)?
**A.** The value was at most 6 h.

**Q.** And the “binding of C3b in renal biopsies” value ([2]; 5 min and necropsy day 4)?
**A.** The value was “lower binding”.

**Q.** What about the IFNγ level [2, 8] of the same substance?
**A.** Its IFNγ level is “not any significant difference”.

**Q.** What about the IL-1α level [2, 8] of the same substance?
**A.** The IL-1α level was “not any significant difference”.

**Q.** And the IL-1β level [2, 8]?
**A.** Its IL-1β level is “not any significant difference”.

**Q.** What about the IL-2 level [2, 8] of the same substance?
**A.** Its IL-2 level is “not any significant difference”.

**Q.** What about the IL-4 level [2, 8] of the same substance?
**A.** Its IL-4 level is “not any significant difference”.

**Q.** What about the IL-6 level [2, 8] of the same substance?
**A.** The IL-6 level was “not any significant difference”.

**Q.** And the IL-10 level [2, 8]?
**A.** Its IL-10 level is “not any significant difference”.

**Q.** What about the IL-12 level [2, 8] of the same substance?
**A.** Its IL-12 level is “not any significant difference”.

**Q.** And the IL-18 level [2, 8]?
**A.** The IL-18 level was “not any significant difference”.

**Q.** What about the IFNγ level [2, 9] of the same substance?
**A.** Its IFNγ level is “significantly lower levels”.

**Q.** And the IL-1α level [2, 9]?
**A.** The IL-1α level was “significantly lower levels”.

**Q.** And the IL-1β level [2, 9]?
**A.** The IL-1β level was “significantly lower levels”.

**Q.** What about the IL-2 level [2, 9] of the same substance?
**A.** Its IL-2 level is “significantly lower levels”.

**Q.** And the IL-4 level [2, 9]?
**A.** The IL-4 level was “significantly lower levels”.

**Q.** And the IL-6 level [2, 9]?
**A.** The IL-6 level was “significantly lower levels”.

**Q.** What about the IL-10 level [2, 9] of the same substance?
**A.** The IL-10 level was “significantly lower levels”.

**Q.** And the IL-12 level [2, 9]?
**A.** Its IL-12 level is “significantly lower levels”.

**Q.** And the IL-18 level [2, 9]?
**A.** Its IL-18 level is “significantly lower levels”.

**Q.** And the IL-1RA protein level ([2]; after 96 hours)?
**A.** The IL-1RA protein level was “unaffected”.

**Q.** What about the IL-8 protein level ([2]; after 96 hours) of the same substance?
**A.** Its IL-8 protein level is “unaffected”.

**Q.** What about the IL-1a protein level [2, 10] of the same substance?
**A.** The IL-1a protein level was “suppressed”.

**Q.** And the IL-12 protein level [2, 10]?
**A.** The IL-12 protein level was “suppressed”.

**Q.** And the creatinine levels post-transplantation ([2]; recipients' blood, 24-96 hours, vs control grafts)?
**A.** The creatinine levels post-transplantation was “significantly lower”.

**Q.** What about the “C3a in blood samples” value [2, 11] of the same substance?
**A.** Its value is “substantially lower”.

**Q.** And the “TAT in blood samples” value [2, 11]?
**A.** The value was “substantially lower”.

**Q.** And the “sC5b-9 in blood samples” value [2, 11]?
**A.** Its value is “substantially lower”.

**Q.** What about the “complement and coagulation markers (C3a, sC5b-9, TAT, C3b)” value ([3]; displaying lower values) of the same substance?
**A.** The value was “confirmed these results”.

**Q.** And the “cytokines / systemic inflammation” value [3]?
**A.** Its value is “confirmed these results”.
